Literature values as cited in PMC13231908, “Evaluating acridones as novel therapeutics for human babesiosis” (Antimicrobial Agents and Chemotherapy, 2026).

Details: mouse, in vivo, po, 80 mg/kg

| Structure (SMILES) | AUCinf | AUClast |
| --- | --- | --- |
| O=c1c2cc(F)c(Oc3ccc(OC(F)(F)F)cc3)cc2[nH]c2cc(Cl)cc(F)c12 [T226] | 95.7 ng·h/mL | 33.9 ng·h/mL |
